According to US20260109712A1, “RIFAMYCINS FOR NONTUBERCULOUS MYCOBACTERIA” (priority 2022, published 2026):
Converted amounts (≈) assume the structure as drawn. Where two headings read alike, the source gives them in different places.

Experiments:
[1] = system: M. abscessus subspecies massilense; assay: MIC, Table 9; format: cell-based, Mycobacterium abscessus; conditions: for MIC: M. abscessus subspecies massilense
[2] = Plasma protein binding assay (rapid equilibrium dialysis); format: in vitro ADME
Procedure, shortened: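 Rapid equilibrium dialysis ran 4 h at 37° C (300 RPM) with compound-spiked plasma (10,000 ng/mL) on one side and PBS on the other. Each side was then mixed 1:1 […] to equalise matrix before LC-MS/MS quantification.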

M. simiae = assay: MIC, Table 9; format: cell-based, Mycobacterium simiae
[3] = Mouse pharmacokinetics studies; format: in vivo, CD-1 mice
Procedure, shortened: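 Plasma from K2EDTA-collected blood analysed by LC-MS/MS with multiple-reaction monitoring in electrospray positive mode. Parameters derived by non-compartmental analysis.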

[4] = system: M. abscessus subsp. abscessus K21; assay: MIC assay, clinical isolate K21; format: cell-based, Mycobacterium abscessus; conditions: 90% inhibition of bacterial growth
M. chelonae = assay: MIC, Table 9; format: cell-based, Mycobacterium chelonae
[5] = system: M. abscessus subspecies bolletii; assay: MIC, Table 9; format: cell-based, Mycobacterium abscessus; conditions: for MIC: M. abscessus subspecies bolletii
CYP3A4 = conditions: human
Experimental: The threshold cycle (CT) was measured for each isoform cDNA by real time qRT-PCR. The mRNA level of each isoform was assessed by the relative quantifiation with reference gene (GAPDH) as the normalizer method. The normalized fold induction was calculated by 2^−ΔΔCT method, in which 0.1% DMSO was used as the reference (vehicle control). The induction potential of each test compound was analyzed by comparing its fold induction to a pre-determined cutoff value for each lot of hepatocytes. The hepatocytes lots used in this study were validated using 10 known inducers and 5 known non-inducers for each isozyme. A cutoff value is determined based on the validation study for each hepatocytes lot.

Mycobacterium abscessus = assay: MIC against Mycobacterium abscessus (strain not given); format: cell-based
THP-1 = assay: Fold-killing in THP-1; format: cell-based; conditions: expressed in log-10 scale
[6] = female, CD-1, mouse, in vivo, 10 mg/kg
[7] = female, CD-1, mouse, in vivo, iv, 10 mg/kg

For `CO[C@H]1/C=C/O[C@@]2(C)Oc3c(C)c(O)c4c(c3C2=O)C2=NC3(CCN(CC(C)C)CC3)NC2=C(NC(=O)/C(C)=C/C=C/[C@H](C)[C@H](O)[C@@H](C)[C@@H](O)[C@@H](C)[C@H](OC(=O)c2cccnc2)[C@@H]1C)C4=O` [5m, 25-O-(3-pyridinecarbonyl)-25-O-desacetyrifabutin], the fold improvement ([1]; 5m vs rifabutin, subspecies massilense) was 8, the MIC [1] was 0.04 µM (≈ 0.0364 µg/mL) and the “fold increase in the unbound fraction in plasma” value ([2]; plasma) was “at least 100 fold”. It also gave an MIC (M. simiae) of 0.18 µM (≈ 0.164 µg/mL), a fold improvement (M. simiae; 5m vs rifabutin) of 56 and a CL ([3]; mouse, in vivo, 10 mg/kg) of 3.0 mL/min/kg. For the same molecule, the Vd ([3]; mouse, in vivo, 10 mg/kg) was 1.6 L/kg, the “fAUC/MIC, times higher than rifabutin” value ([3]; mouse, in vivo, po, 10 mg/kg) was 128 and the “Mab K21 MIC” value [4] was 0.033 µM. The MIC (M. chelonae) was 0.01 µM (≈ 0.0091 µg/mL), the fold improvement (M. chelonae; 5m vs rifabutin) was 58 and the fold improvement ([5]; 5m vs rifabutin, subspecies bolletii) was 40. For the same molecule, the MIC [5] was 0.03 µM (≈ 0.0273 µg/mL).

In the case of `CO[C@H]1/C=C/O[C@@]2(C)Oc3c(C)c(O)c4c(c3C2=O)C2=NC3(CCN(CC(C)C)CC3)NC2=C(NC(=O)/C(C)=C\C=C\[C@H](C)[C@H](O)[C@@H](C)[C@@H](O)[C@@H](C)[C@H](OC(C)=O)[C@@H]1C)C4=O` [rifabutin, reference compound], the “CYP3A4 gene fold-induction at 10 μM” value (CYP3A4) is reported as 40.0, the MIC ([1]; Mycobacteroides abscessus) is reported as 0.3 µM (≈ 0.254 µg/mL) and the MIC (Mycobacterium abscessus; Mycobacteroides abscessus, 72 h, Table 22, read-out: MICMab) is reported as 1.15 µM (≈ 0.974 µg/mL). The MIC (Mycobacterium abscessus; Mycobacteroides abscessus, Table 13, read-out: Mab MIC) was 1.1 µM (≈ 0.932 µg/mL), the MIC (Mycobacterium abscessus; Mycobacteroides abscessus, against Mycobacterium abscessus, Table 19, read-out: MIC) was 1.1 µM (≈ 0.932 µg/mL) and the MIC (Mycobacterium abscessus; against Mycobacterium abscessus, Table 20, read-out: MIC) was 1.1 µM (≈ 0.932 µg/mL). For the same molecule, the ƒu ([2]; 4 h, 10000 ng/mL) was 4.5%, the fraction unbound at 4 h, 10000 ng/mL ([2]; plasma) was 0.0376 and the “plasma unbound (ƒu, %)” value ([2]; plasma, 4 h, 10000 ng/mL) was 3.8%. It also gave an unbound fraction ([2]; plasma, 4 h, 10000 ng/mL) of 3.76%, an MIC (M. simiae; Mycobacterium simiae) of 10 µM (≈ 8.47 µg/mL) and a ƒAUC/MIC ([3]; Table 18) of 0.22. For the same molecule, the ƒAUC/MIC ([3]; Table 20) was 0.22, the “25-O-desacetyl rifabutin 6 detected in mouse plasma” value ([3]; female, CD-1, mouse, in vivo) was 0.4% and the F ([3]; female, CD-1, mouse, in vivo) was 70%. It also gave a Vd ([3]; female, CD-1, mouse, in vivo) of 3.5 L/kg, a clearance ([3]; female, CD-1, mouse, in vivo) of 10.3 mL/min/kg and a Vd [3, 6] of 3.51 L/kg. The clearance [3, 6] was 10.3 mL/min/kg, the C-25 deacylation i.v. ([3]; female, CD-1, mouse, in vivo, iv) was 0.4% and the Vd [3, 7] was 3.51 L/kg. For the same molecule, the clearance [3, 7] was 10.3 mL/min/kg, the C-25 deacylation p.o. ([3]; female, CD-1, mouse, in vivo, po) was 0.4% and the AUC ([3]; female, CD-1, mouse, in vivo, po, 10 mg/kg) was 11500 ng·h/mL. It also gave a half-life ([3]; female, mouse, in vivo, CD-1 mice, 10 mg/kg) of 4 h, a fAUC/MIC ([3]; p.o. doses of 10 mg/kg) of 0.22 and an MIC (M. chelonae; Mycobacteroides chelonae) of 0.58 µM (≈ 0.491 µg/mL). The MIC ([5]; Mycobacteroides abscessus) was 1.2 µM (≈ 1.02 µg/mL) and the “Fold-killing in THP-1” value (THP-1) was 2.3.
